Laboratory results reported in paper PMC10465125 (eLife, 2023).
“Also recorded” adds a separate entry of the source.

What was measured:
SARS-CoV-2 omicron virus = assay: microbe, parasite or virus in culture; format: cell-based
[1] = system: SARS-CoV-2 spike Vpps of different variants (alpha, beta, gamma, delta, omicron); format: cell-based

Row | Molecule | EC50 (SARS-CoV-2 omicron virus; Severe acute respiratory syndrome coronavirus 2, Vero C1008, read-out: EC50 against omicron variant virus production) [µg/mL] | suppression of entry of Vpp of beta, delta and omicron variant [1] | suppression of infection by Vpp of wild type, alpha variant, gamma variant [1] | EC50 against omicron variant virus production (SARS-CoV-2 omicron virus) [µg/mL] | block of alpha, beta, gamma, delta, and omicron variants Vpp infection as well as wild-type Vpps [1]
1 | O=C1O[C@H]2[C@@H]3OC(=O)c4cc(O)c(O)c(O)c4-c4c(O)c(O)c5oc(=O)c6c(c(O)c(O)c7oc(=O)c4c5c76)-c4c(cc(O)c(O)c4O)C(=O)OC[C@H]3OC(O)[C@@H]2OC(=O)c2cc(O)c(O)c(O)c2-c2c1cc(O)c(O)c2O (mixture of isomers) [Punicalagin, punicalagin] | 2.88 | less potency and not | significant suppression; also recorded: potent inhibitor | – | –
2 | tannic acid [reference compound] | – | – | significant suppression | 5.27 | could block
